The record followed here is the SangsterLogP compilation.

Usually logP stands for a log measure of how a compound divides between an organic and an aqueous phase. A higher logP goes with higher lipophilicity.

The data set can be described thus: method code SF, from DOI: 10.1007/978-3-0348-5795-6_10, PMID: 954948.
Turning to `CCN=C=S`, the logP was 1.47.

`Oc1ccc(N=C=S)cc1` gave a lipophilicity (logP) of 2.74.

Molecule `S=C=Nc1ccc(Oc2ccccc2)cc1` registered a logP of 4.75.

For `S=C=Nc1ccc(-c2ccccc2)cc1`, the logP came to 4.66.

For the molecule `S=C=Nc1ccc2ccccc2c1`, the logP was 4.34.

In turn, `CC(N=C=S)c1ccccc1` (centres undefined) came in with a logP of 3.46.

In the case of `S=C=NC(c1ccccc1)(c1ccccc1)c1ccccc1`, the logP turned out to be 7.02.

The molecule `S=C=Nc1ccc(Cc2ccccc2)cc1` yielded a log partition coefficient (logP) of 4.4.

As for `S=C=NCc1ccccc1`, the logP was found to be 3.16.

For `O=C(c1ccccc1)c1ccc(N=C=S)cc1`, the logP amounted to 4.88.

With `S=C=NCCc1ccccc1`, the logP is 3.47.

For the molecule `O=C(Oc1ccc(N=C=S)cc1)c1ccccc1`, the logP came out at 4.9.

`O=S(c1ccccc1)c1ccc(N=C=S)cc1` (centres undefined): the logP worked out at 4.4.

Regarding `S=C=NC(c1ccccc1)c1ccccc1`, the logP came out at 5.09.

As to `S=C=Nc1ccc2cc3ccccc3cc2c1`, the logP is 5.7.

`S=C=Nc1ccc(/N=N/c2ccccc2)cc1` gave a log partition coefficient (logP) of 5.55.

`S=C=NCc1cccc2ccccc12`: the lipophilicity (logP) was found to be 4.42.

In turn, `S=C=Nc1ccc(Nc2ccccc2)cc1` registered a logP of 4.94.

In turn, `S=C=Nc1cccc2ccccc12` had a logP of 4.34.
